Reference: US12077503B2, “Substituted cyclic amides and their use as herbicides” (FMC CORPORATION, priority 2015, dated 2024)

How the values were obtained:
Type in all cases: in vivo
[1] = system: barnyardgrass (Echinochloa crus-galli); test: Test B flooded paddy test; settings: Echinochloa crus-galli, 360 h, Flood, 250 g ai/ha; visually evaluated after 13 to 15 d; read-out: Plant response rating, Barnyardgrass (0 to 100 scale where 0 is no effect and 100 is complete control)
Summary of the method: (§1)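 Visual ratings (0 none to 100 complete control) are relative to untreated plants, taken 13–15 d after treatment in a greenhouse. Test material went straight into floodwater standing 3 cm above the soil, kept constant, on plants at the 2-leaf stage.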

rice (Oryra sativa) = test: Test B flooded paddy test; settings: Oryza sativa, 360 h, Flood, 250 g ai/ha; visually evaluated after 13 to 15 d; read-out: Plant response rating, Rice (0 to 100 scale where 0 is no effect and 100 is complete control)
Summary of the method: as §1

[2] = system: ducksalad (Heteranthera limosa); test: Test B flooded paddy test; settings: Heteranthera limosa, 360 h, Flood, 250 g ai/ha; visually evaluated after 13 to 15 d; read-out: Plant response rating, Ducksalad (0 to 100 scale where 0 is no effect and 100 is complete control)
Summary of the method: as §1

[3] = system: sedge, umbrella (small-flower umbrella sedge, Cyperus difformis); test: Test B flooded paddy test; settings: Cyperus difformis, 360 h, Flood, 250 g ai/ha; visually evaluated after 13 to 15 d; read-out: Plant response rating, Sedge, Umbrella (0 to 100 scale where 0 is no effect and 100 is complete control)
Summary of the method: as §1

[4] = system: barnyardgrass (Echinochloa crus-galli); test: Test A postemergence; settings: Echinochloa crus-galli, post-emergence, 240 h, Postemergence
Summary of the method: (§2)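 Ratings of 0 (no effect) to 100 (complete control) come from visual comparison with untreated controls roughly 10 d after treatment. Test chemicals, formulated in a non-phytotoxic solvent mixture with surfactant, were applied either as a preemergence directed soil spray on seeded soil or postemergence to one- to two-leaf plants 2 to 10 cm tall.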

[5] = system: pigweed (Amaranthus retroflexus); test: Test A postemergence; settings: Amaranthus retroflexus, post-emergence, 240 h, Postemergence
Summary of the method: as §2

[6] = system: wheat (Triticum aestivum); test: Test A postemergence; settings: Triticum aestivum, post-emergence, 240 h, Postemergence
Summary of the method: as §2

[7] = system: giant foxtail (Setaria faberii); test: Test A postemergence; settings: Setaria faberi, post-emergence, 240 h, Postemergence
Summary of the method: as §2

[8] = system: blackgrass (Alopecurus myosuroides); test: Test A postemergence; settings: Alopecurus myosuroides, post-emergence, 240 h, Postemergence
Summary of the method: as §2

corn (Zea mays) = test: Test A postemergence; settings: Zea mays, post-emergence, 240 h, Postemergence
Summary of the method: as §2

Kochia (Kochia scoparia) [9] = test: Test A postemergence; settings: Bassia scoparia, post-emergence, 240 h, Postemergence
Summary of the method: as §2

[10] = system: Galium (catchweed bedstraw, Galium aparine); test: Test A postemergence; settings: Galium, post-emergence, 240 h, Postemergence
Summary of the method: as §2

[11] = system: ragweed (common ragweed, Ambrosia elatior); test: Test A postemergence; settings: Ambrosia artemisiifolia, post-emergence, 240 h, Postemergence
Summary of the method: as §2

[12] = system: ryegrass, Italian (Italian ryegrass, Lolium multiflorum); test: Test A postemergence; settings: Lolium multiflorum, post-emergence, 240 h, Postemergence
Summary of the method: as §2

[13] = system: barnyardgrass (Echinochloa crus-galli); test: Test A preemergence; settings: Echinochloa crus-galli, pre-emergence, 240 h, Preemergence
Summary of the method: as §2

[14] = system: pigweed (Amaranthus retroflexus); test: Test A preemergence; settings: Amaranthus retroflexus, pre-emergence, 240 h, Preemergence
[15] = system: giant foxtail (Setaria faberii); test: Test A preemergence; settings: Setaria faberi, pre-emergence, 240 h, Preemergence
Summary of the method: as §2

Kochia (Kochia scoparia) [16] = test: Test A preemergence; settings: Bassia scoparia, pre-emergence, 240 h, Preemergence
Summary of the method: as §2

[17] = system: ragweed (common ragweed, Ambrosia elatior); test: Test A preemergence; settings: Ambrosia artemisiifolia, pre-emergence, 240 h, Preemergence
Summary of the method: as §2

[18] = system: ryegrass, Italian (Italian ryegrass, Lolium multiflorum); test: Test A preemergence; settings: Lolium multiflorum, pre-emergence, 240 h, Preemergence
Summary of the method: as §2

CN1C[C@H](c2cccc(C(F)(F)F)c2)[C@@H](C(=O)Nc2cccnc2F)C1=O [Compound 1397]
pest or weed control at 250 g/ha [1]: 75% | pest or weed control at 250 g/ha (rice (Oryra sativa)): 0% | pest or weed control at 250 g/ha [2]: 100% | pest or weed control at 250 g/ha [3]: 0% | pest or weed control at 31 g/ha ([4]; 31 g ai/ha, 0 is no effect, 100 is complete control, read-out: Barnyardgrass plant response rating (0 to 100 scale)): 90% | pest or weed control at 125 g/ha ([4]; 125 g ai/ha, visual injury after approx. 10 d, 0 to 100 scale, 0 no effect, 100 complete control, read-out: Plant response rating, Barnyardgrass): 90% | pest or weed control at 31 g/ha ([5]; 31 g ai/ha, 0 is no effect, 100 is complete control, read-out: Pigweed plant response rating (0 to 100 scale)): 0% | pest or weed control at 125 g/ha ([5]; 125 g ai/ha, visual injury after approx. 10 d, 0 to 100 scale, 0 no effect, 100 complete control, read-out: Plant response rating, Pigweed): 0% | plant injury at 31 g/ha ([6]; 31 g ai/ha, 0 is no effect, 100 is complete control, read-out: Wheat plant response rating (0 to 100 scale)): 40% | plant injury at 125 g/ha ([6]; 125 g ai/ha, visual injury after approx. 10 d, 0 to 100 scale, 0 no effect, 100 complete control, read-out: Plant response rating, Wheat): 70% | pest or weed control at 31 g/ha ([7]; 31 g ai/ha, 0 is no effect, 100 is complete control, read-out: Foxtail, Giant plant response rating (0 to 100 scale)): 80% | pest or weed control at 125 g/ha ([7]; 125 g ai/ha, visual injury after approx. 10 d, 0 to 100 scale, 0 no effect, 100 complete control, read-out: Plant response rating, Foxtail, Giant): 90% | pest or weed control at 31 g/ha ([8]; 31 g ai/ha, 0 is no effect, 100 is complete control, read-out: Blackgrass plant response rating (0 to 100 scale)): 40% | pest or weed control at 125 g/ha ([8]; 125 g ai/ha, visual injury after approx. 10 d, 0 to 100 scale, 0 no effect, 100 complete control, read-out: Plant response rating, Blackgrass): 70% | plant injury at 31 g/ha (corn (Zea mays); 31 g ai/ha, 0 is no effect, 100 is complete control, read-out: Corn plant response rating (0 to 100 scale)): 50% | Corn plant response rating (crop injury, 0 = no effect, 100 = complete kill) at 125 g/ha (corn (Zea mays); 125 g ai/ha, visual injury after approx. 10 d, 0 to 100 scale, 0 no effect, 100 complete control): 90% | pest or weed control at 31 g/ha (Kochia (Kochia scoparia) [9]; 31 g ai/ha, 0 is no effect, 100 is complete control, read-out: Kochia plant response rating (0 to 100 scale)): 0% | pest or weed control at 125 g/ha (Kochia (Kochia scoparia) [9]; 125 g ai/ha, visual injury after approx. 10 d, 0 to 100 scale, 0 no effect, 100 complete control, read-out: Plant response rating, Kochia): 0% | pest or weed control at 31 g/ha ([10]; 31 g ai/ha, 0 is no effect, 100 is complete control, read-out: Galium plant response rating (0 to 100 scale)): 20% | pest or weed control at 125 g/ha ([10]; 125 g ai/ha, visual injury after approx. 10 d, 0 to 100 scale, 0 no effect, 100 complete control, read-out: Plant response rating, Galium): 60% | pest or weed control at 31 g/ha ([11]; 31 g ai/ha, 0 is no effect, 100 is complete control, read-out: Ragweed plant response rating (0 to 100 scale)): 0% | pest or weed control at 125 g/ha ([11]; 125 g ai/ha, visual injury after approx. 10 d, 0 to 100 scale, 0 no effect, 100 complete control, read-out: Plant response rating, Ragweed): 0% | pest or weed control at 31 g/ha ([12]; 31 g ai/ha, 0 is no effect, 100 is complete control, read-out: Ryegrass, Italian plant response rating (0 to 100 scale)): 50% | pest or weed control at 125 g/ha ([12]; 125 g ai/ha, visual injury after approx. 10 d, 0 to 100 scale, 0 no effect, 100 complete control, read-out: Plant response rating, Ryegrass, Italian): 40% | pest or weed control at 31 g/ha ([13]; 31 g ai/ha, 0 to 100 scale where 0 is no effect and 100 is complete control, read-out: Barnyardgrass plant response rating): 100% | pest or weed control at 125 g/ha ([13]; 125 g ai/ha, 0 to 100 scale (0 no effect, 100 complete control), read-out: Plant response rating, Barnyardgrass): 100% | pest or weed control at 31 g/ha ([14]; 31 g ai/ha, 0 to 100 scale where 0 is no effect and 100 is complete control, read-out: Pigweed plant response rating): 0% | pest or weed control at 125 g/ha ([14]; 125 g ai/ha, 0 to 100 scale (0 no effect, 100 complete control), read-out: Plant response rating, Pigweed): 0% | pest or weed control at 31 g/ha ([15]; 31 g ai/ha, 0 to 100 scale where 0 is no effect and 100 is complete control, read-out: Foxtail, Giant plant response rating): 100% | pest or weed control at 125 g/ha ([15]; 125 g ai/ha, 0 to 100 scale (0 no effect, 100 complete control), read-out: Plant response rating, Foxtail, Giant): 100% | pest or weed control at 31 g/ha (Kochia (Kochia scoparia) [16]; 31 g ai/ha, 0 to 100 scale where 0 is no effect and 100 is complete control, read-out: Kochia plant response rating): 0% | pest or weed control at 125 g/ha (Kochia (Kochia scoparia) [16]; 125 g ai/ha, 0 to 100 scale (0 no effect, 100 complete control), read-out: Plant response rating, Kochia): 60% | pest or weed control at 31 g/ha ([17]; 31 g ai/ha, 0 to 100 scale where 0 is no effect and 100 is complete control, read-out: Ragweed plant response rating): 0% | pest or weed control at 125 g/ha ([17]; 125 g ai/ha, 0 to 100 scale (0 no effect, 100 complete control), read-out: Plant response rating, Ragweed): 0% | pest or weed control at 31 g/ha ([18]; 31 g ai/ha, 0 to 100 scale where 0 is no effect and 100 is complete control, read-out: Ryegrass, Italian plant response rating): 50% | pest or weed control at 125 g/ha ([18]; 125 g ai/ha, 0 to 100 scale (0 no effect, 100 complete control), read-out: Plant response rating, Ryegrass, Italian): 70%
